“Also recorded” adds a separate entry of the source.
Tests used:
[1] = test system: restless leg syndrome (RLS) patients; assay: Oral therapy of RLS patients with terguride (patient histories); assay type: in vivo, human
Excerpt: The invention is explained in more detail below based on examples in the form of patient histories.

[2] = test system: restless leg syndrome (RLS) patients; settings: prior art clinical studies, cited from earlier work; for therapeutic effectiveness in RLS: levodopa perorally in the evening, 100 to 600 mg
[3] = test system: sleeping pattern, REM phases; assay: Effect of oral terguride on sleeping pattern / sleep profile; assay type: in vivo, human; settings: 0.5 mg p.o. up to 50 mg
Method: A dosage of 0.5-2.5 mg is preferred. In the therapy of RLS, terguride in […] dosages apparently acts as a partial agonist, its acting especially on RLS symptoms as a complete agonist, but has little or no effect on the other intact dopaminergic control circuits that control vomiting, orthostasis and the sleep profile. Thus, there is no need to specially change the dosage with a view to side effects. At the same time, however, the desired effect begins very quickly, which is very useful if RLS symptoms occur in the evening, and leads to the patient being unable to fall asleep. Finally, if a longer duration of action is desirable, the dosage of 0.5, 1 mg or even higher can be increased without disturbing the sleep profile.

[4] = cited from earlier work; for plasma half-life: in vivo

Structure (SMILES): OC(CCN1CCCCC1)(c1ccccc1)C1CC2C=CC1C2 (stereo not shown) [biperiden]
- effect of previous treatment on RLS ([1]; Patient 2, previous treatment): little effect

Structure (SMILES): NCC1(CC(=O)O)CCCCC1 [gabapentin]
- therapeutic effectiveness in RLS [2]: especially effective in the control of painful RLS symptoms

Structure (SMILES): [Mg+2] [magnesium]
- success of previous RLS treatments ([1]; Patient 3): only moderately successful

Structure (SMILES): Cc1ccc(-c2nc3ccc(C)cn3c2CC(=O)N(C)C)cc1 [zolpidem]
- success of previous RLS treatments ([1]; Patient 3): only moderately successful

Structure (SMILES): CCN(CC)C(=O)N[C@H]1C[C@@H]2c3cccc4[nH]cc(c34)C[C@H]2N(C)C1 [terguride]
- Epworth scale ([1]; Patient 1, daily dosage 1.5 mg orally): 12
- side effects ([1]; Patient 1, daily dosage 1.5 mg orally, long-term therapy): no side effects
- improvement of RLS ([1]; Patient 2, familial RLS, 1 mg orally): very distinct improvement
- side effects ([1]; Patient 2, 1 mg / 0.5 mg orally): no side effects
- effectiveness in RLS ([1]; Patient 2, further therapy with 0.5 mg): partial effectiveness
- course of RLS in withdrawal trial ([1]; Patient 2, withdrawal of terguride): immediate deterioration
- success of RLS treatment ([1]; Patient 3 (person two), 1 mg orally for 3 months): very good success
- side effects ([1]; Patient 3, 1 mg orally for 3 months): no side effects
- effectiveness on renewed use after stopping when RLS symptoms recurred ([1]; compared with first administration): same effectiveness
- tolerance in treatment of RLS ([1]; general statement): very good tolerance
- effectiveness in oral therapy of RLS ([1]; oral, general statement): exceptionally effective; also recorded: great effectiveness
- adverse effect on REM phases [3]: no adverse effect
- adverse effects on the sleeping pattern [3]: no adverse effects whatsoever

Structure (SMILES): N[C@@H](Cc1ccc(O)c(O)c1)C(=O)O [Levodopa]
- tolerance / side effects in RLS therapy [2]: generally well tolerated
- therapeutic effectiveness in RLS [2]: brief effectiveness

Structure (SMILES): NC(=O)N1c2ccccc2C=Cc2ccccc21 [carbamazepine]
- success of previous RLS treatments ([1]; Patient 3): only moderately successful
- therapeutic effectiveness in RLS [2]: especially effective in the control of painful RLS symptoms

Structure (SMILES): CCCN1C[C@H](CSC)C[C@@H]2c3cccc4[nH]cc(c34)C[C@H]21 [pergolide]
- course of RLS after switch from terguride ([1]; Patient 2, later switched to pergolide): no deterioration
- plasma half-life [4]: more than 27 hours

Structure (SMILES): CC(C)C[C@H]1C(=O)N2CCC[C@H]2[C@]2(O)O[C@](NC(=O)[C@@H]3C=C4c5cccc6[nH]c(Br)c(c56)C[C@H]4N(C)C3)(C(C)C)C(=O)N12 [bromocriptine]
- share of perorally administered dose reaching systemic blood circulation ([4]; peroral): 6%

Structure (SMILES): CCCN(CCC)CCc1cccc2c1CC(=O)N2 [Ropinirole]
- tolerance / side effects in RLS therapy [2]: fewer side effects
- therapeutic effectiveness in RLS [2]: less effective

Structure (SMILES): C=CCN1C[C@H](C(=O)N(CCCN(C)C)C(=O)NCC)C[C@@H]2c3cccc4[nH]cc(c34)C[C@H]21 [cabergoline]
- plasma half-life [4]: more than 40 hours

Structure (SMILES): CCCN[C@H]1CCc2nc(N)sc2C1 [Pramipexol]
- therapeutic effectiveness in RLS [2]: almost complete suppression of symptoms
